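Growth conditions: 96-well plates. Treatment: test compound, 48 hours, 5 concentrations. Analysis: linear interpolation between bracketing concentrations; unreached endpoints set to highest concentration. GI50: concentration for 50% inhibition of growth.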 Activity calls are given as the source filed them. No stated cut-off is given here; in the data, active = GI50 up to about 1.1 µM and inactive = higher.
Key:
Experiment in all cases: inhibition of tumour cell growth, NCI panel, 48 h
[1] = test system: MDA-MB-231
[2] = test system: NCI-H522
[3] = test system: SNB-75
[4] = test system: PC-3
[5] = test system: SK-OV-3
[6] = test system: KM12
[7] = test system: A549
[8] = test system: SF-295
[9] = test system: SN12C
[10] = test system: RXF 393
[11] = test system: Malme-3M
[12] = test system: COLO 205
[13] = test system: SF-268
[14] = test system: U-251
[15] = test system: SR
[16] = test system: OVCAR-4
[17] = test system: SK-MEL-5
[18] = test system: HL-60
[19] = test system: DU-145
[20] = test system: HOP-92

Measured: GI50

O=C(Cn1cc(F)c(=O)[nH]c1=O)C12CC3CC(CC(C3)C1)C2
inactive: [1] > 100 µM | [2] > 100 µM | [3] > 100 µM | [4] > 100 µM | [5] > 100 µM | [6] > 100 µM | [7] > 100 µM | [8] > 100 µM | [9] > 100 µM | [10] > 100 µM | [11] > 100 µM | [12] > 100 µM | [13] > 100 µM | [14] > 100 µM | [15] > 100 µM | [16] > 100 µM | [17] > 100 µM | [18] > 100 µM | [19] > 100 µM

Cc1ccc(NC(=O)/C=C/c2ccccc2)c(C)c1
inactive: [1] 52.1 µM | [2] 30 µM | [3] 24.9 µM | [4] > 100 µM | [5] 43.2 µM | [6] > 100 µM | [7] > 100 µM | [9] 94.8 µM | [11] 86.9 µM | [12] > 100 µM | [13] 52 µM | [14] 76 µM | [15] > 100 µM | [16] > 100 µM | [17] > 100 µM | [18] > 100 µM | [19] > 100 µM

COc1ccc2cc(C(C)C(=O)N3C(=O)OCC3(C)C)ccc2c1 (configuration not stated)
inactive: [1] > 100 µM | [3] 46.6 µM | [4] > 100 µM | [5] > 100 µM | [7] > 100 µM | [8] > 100 µM | [9] > 100 µM | [20] > 100 µM | [11] > 100 µM | [12] > 100 µM | [13] > 100 µM | [14] > 100 µM | [15] > 100 µM | [16] > 100 µM | [17] > 100 µM | [18] > 100 µM | [19] > 100 µM

N#Cc1c2c(c(N)oc1=O)C(c1ccccc1)CC(=O)N2 (configuration not stated)
inactive: [1] > 100 µM | [2] > 100 µM | [3] > 100 µM | [4] > 100 µM | [5] > 100 µM | [6] > 100 µM | [7] > 100 µM | [8] > 100 µM | [9] > 100 µM | [10] > 100 µM | [20] > 100 µM | [11] > 100 µM | [12] > 100 µM | [13] > 100 µM | [14] > 100 µM | [16] > 100 µM | [17] > 100 µM | [18] > 100 µM | [19] > 100 µM

CC(C)c1ccc2c(c1)C=C1OC(=O)[C@]3(C)CCC[C@@]2(C)C13 (some centres not stated)
inactive: [1] > 100 µM | [2] 73.5 µM | [3] > 100 µM | [4] > 100 µM | [5] > 100 µM | [6] > 100 µM | [7] > 100 µM | [8] > 100 µM | [9] > 100 µM | [10] > 100 µM | [12] > 100 µM | [13] > 100 µM | [14] > 100 µM | [15] > 100 µM | [16] > 100 µM | [17] > 100 µM | [18] 44.2 µM | [19] > 100 µM

CC1=CC(=O)N(n2c(C)n[nH]c2=O)C1=O
inactive: [1] > 100 µM | [2] > 100 µM | [4] > 100 µM | [5] > 100 µM | [6] > 100 µM | [7] > 100 µM | [8] > 100 µM | [9] > 100 µM | [10] > 100 µM | [20] > 100 µM | [11] > 100 µM | [12] > 100 µM | [13] > 100 µM | [14] > 100 µM | [15] > 100 µM | [16] > 100 µM | [17] > 100 µM | [19] > 100 µM

CSCCCCCCCCCCOc1ccc(C=C2C(=C(C#N)C#N)c3ccccc3C2=C(C#N)C#N)cc1
active: [18] 0.0962 µM
inactive: [1] 19.4 µM | [2] 19.5 µM | [4] 17.6 µM | [5] 17.6 µM | [6] 19 µM | [8] 17.2 µM | [10] 17.3 µM | [20] 11.7 µM | [13] 17.9 µM | [14] 17.5 µM | [15] 15 µM | [16] 18.3 µM | [17] 17.9 µM | [19] 15.6 µM

O=[N+]([O-])c1cccc2nccc(NCCCO)c12
inactive: [1] 23 µM | [2] 6 µM | [3] 24.3 µM | [4] 20.7 µM | [5] 23.3 µM | [6] 10.8 µM | [7] 16.5 µM | [8] 15.5 µM | [9] 14.8 µM | [10] 6.17 µM | [11] 10.2 µM | [12] 3.55 µM | [13] 11.6 µM | [14] 14.1 µM | [15] 7.66 µM | [16] 11 µM | [17] 3.9 µM | [18] 11.6 µM | [19] 16.8 µM
